Article PMC3375010, “The TRPV5/6 calcium channels contain multiple calmodulin binding sites with differential binding properties” (Journal of Structural and Functional Genomics, 2012)
“Also recorded” adds a separate entry of the source.

Key:
CaM (calmodulin) [1] = biological target: T1, CaM (calmodulin) (Xenopus laevis, UniProt P0DP33); test: Tryptophan fluorescence of the peptide upon titration by CaM; assay type: binding, Xenopus laevis (identical to mammalian); conditions: room temperature; for emission maximum: V5p2, W593; for emission maximum without CaM (start of shift): V6p1 W695: CaM buffer pH 7.0, V5p2 W593: H2O with 2-mercaptoethanol pH 7.0 (Table 1), before CaM addition; for shift of emission maximum upon CaM addition: emission 295–405 nm, peptide:CaM 1:0–1:2
T1 construct: made in house; host or cells: E. coli AR58 (pTNcoI2 plasmid)
Description: Fluorescence measurements were performed using a Varian Cary Eclipse fluorescence spectrophotometer (Agilent Technologies, USA), with emission and excitation slit width set to 5 nm. Tryptophan excitation wavelength was set to 282 nm and emission spectra were recorded in the range 295–405 nm. Each spectrum was recorded three times and averaged. Fluorescence intensity contribution from CaM and background intensity from buffer and cuvettes were subtracted for each spectrum. The recorded emission intensities were corrected for dilution effects. All measurements were carried out at room temperature. CaM and peptides stocks were prepared in 50 mM KCl, 10 mM CaCl2 20 mM Tris pH 7.0 buffer. […] For each titration point, the samples were kept at room temperature for 30 min prior to measurements to ensure that the equilibrium was reached.

CaM (calmodulin) [2] = biological target: T1, CaM (calmodulin); test: 15N-1H-HSQC NMR titration of 15N-labelled CaM with peptide (with 1D 15N-filtered NMR); assay type: binding, Xenopus laevis (identical to mammalian); conditions: 35°C; for CaM NMR line broadening: CaM:peptide 1:1.5 molar ratio, H2O with 10 mM 2-mercaptoethanol; for NMR exchange regime of CaM-peptide complex: 15N-1H-HSQC, V5p4, V5p5: CaM buffer pH 7.0, V5p2, V5p2n: H2O with 10 mM 2-mercaptoethanol; for CaM domains involved in binding (overall): V6p1: first and second event, pH 7.0, V5p3: 1:1, pH 5.0; for CaM binding affinity (words, from NMR): 1:0–1:3
Description: (§1) For the titration by synthetic peptides, ^15N-labeled CaM samples with concentration 0.3–0.7 mM were used. CaM and peptides were dissolved in either KCl 50 mM, CaCl2 10 mM, Tris 20 mM pH 7.0 (V5p1s, V6p1, V5p4, V5p5), or 10 mM CaCl2, 10 mM ammonium acetate buffer pH 5.0 (V5p3 and V6p3), or MilliQ water with 10 mM 2-mercaptoethanol (V5p2 and V5p2n).
(§2) The binding of target peptides to CaM was monitored by 2D ^15N-^1H-HSQC spectra. The combination of 1D ^15N-filtered and 1D ^15N-^1H-HSQC experiments was used to assess the ratio of bound and non-bound peptides. ^15N-T1rho experiments were used to estimate the transverse relaxation rates of the CaM resonances during the titration. For sequential assignment of CaM 3D HNCACB and CBCA(CO)NH experiments were performed.
All spectra were recorded at 308 K on Varian Inova 800 MHz or Bruker Avance III 600 MHz spectrometers, each equipped with a cryogenic probe.
All NMR spectra were processed using the NMRpipe suite and analyzed by the program CcpNmr Analysis.

[3] = Peptide solubility / aggregation; assay type: physicochemical; conditions: for solubility: V5p2: at concentrations desired for NMR, V5p3, V6p3: 10 mM CaCl2, 10 mM ammonium acetate pH 5.0; for aggregation / precipitation: aqueous buffer versus water, 2-mercaptoethanol 10 mM tested
Description: as §1
^15N-^1H-HSQC spectra of the complexes of CaM with V5p2 at molar ratios 1:0 (black), 1:0.75 (red) and 1:1.5 (blue) are presented in Fig. 5a.
The binding patterns observed for CaM in the two complexes were also very similar (supplementary Fig. 4sC). Low pH (5.0) might influence CaM-peptide interactions but we have not studied the effect of pH in details. As both peptides contain neither tryptophan, nor tyrosine residues, fluorescence measurements were not possible using the native peptides.

CaM (calmodulin) [4] = biological target: T1, CaM (calmodulin); test: 15N-T1rho relaxation of CaM (oligomeric state); design: species or system Xenopus laevis (identical to mammalian); conditions: CaM:V5p2 1:1.5 complex
Description: as §2
At CaM:V5p2 1:0.75 molar ratio, a significant number of the CaM peaks are doubled and for some peaks substantial line broadening is observed. […] Using the envelope of the well-dispersed, upfield-shifted amide resonances, we obtained T1rho values of ~100 ms for free Ca^2+/CaM which decreased to ~80 ms for CaM in the 1:1.5 complex.

CaM-Sepharose = conditions: ref S. Verkaart, private communication; cited from earlier work
Source text: In our previous work we studied a long version of the C-terminal TRPV5 peptide 1 (V5p1, residues 696–729 in human TRPV5).

CaM (calmodulin) [5] = biological target: T1, CaM (calmodulin); test: Isothermal titration calorimetry of CaM with peptide; assay type: binding, Xenopus laevis (identical to mammalian); conditions: for K2 (macroscopic binding constant, second event) / K1 (macroscopic binding constant, first event): CaM 15–20 μM in cell; for K1 (macroscopic binding constant, first event): measured at least three times; for ΔS1 / ΔS2: pH 7.0
Source text: Peptides corresponding to the amino acid residues 133–154, 310–330, 401–428, 591–612, 696–712 and 696–729 of human TRPV5 and 401–428 and 690–716 of human TRPV6 (cf. Table 1) were purchased from Peptides & elephants GmbH (Potsdam, Germany) and GenicBio Limited (Shanghai, China). All peptides were purified by HPLC (>95% purity) and analyzed by mass-spectrometry. Prior to all experiments, to remove residual TFA, the peptides were dialyzed against an appropriate buffer (dialysis tubing Spectra/Por® 7 with 1 K MWCO; Spectrum Labs, USA).
Expression was induced by a temperature shift from 30 to 42°C and 3–4 h after induction cells were harvested and lysed. Calmodulin was purified by weak anion exchange (DEAE, GE Lifesciences) and affinity chromatography (Phenylsepharose, GE Lifesciences). Purified protein was dialyzed against 1/100 of KCl 50 mM, CaCl2 10 mM, Tris 20 mM pH 7.0, freeze-dried and stored at −20°C. Unless specified differently, all chemicals were obtained from Sigma-Aldrich, USA). Uniformly ^13C and/or ^15N-labelled samples were produced by growing the cells in M9 minimal medium containing 4 g/L ^13C6-glucose and/or 1 g/L ^15N-ammonium chloride (Buchem BV, Apeldoorn, The Netherlands) as the sole source of carbon and/or nitrogen, respectively.
ITC samples were prepared by dissolving CaM and peptides in 50 mM KCl, 10 mM CaCl2, 20 mM Tris pH 7.0 buffer. The concentration of CaM in the cell was 15–20 μM, the concentration of peptides in the syringe exceeded the CaM concentration by 15–20 times. Protein concentrations were determined using a Nanodrop spectrophotometer ND-1000 (Isogen Life Science). ITC experiments were carried out using an ITC200 device (MicroCal Inc., Northampton, MA, USA). After thermal equilibration at 298 K, thirty-nine 1 μl serial injections were performed at 500 rpm stirring speed with an injection spacing of 4 min. To correct the experimental binding isotherm for background heat effects, we also titrated peptide into buffer. All measurements were performed at least three times to determine the optimal experimental conditions with respect to signal-to-noise ratio. In all cases, experiments were consistent and reproducible. ITC data analysis was performed using the Origin 7.0 software supplied by the manufacturer of the ITC. All data were analyzed with “one binding site model” and the “sequential binding site model” implemented in this software package.

[6] = biological target: Calmodulin (Homo sapiens) (UniProt P0DP23); test: fluorescence anisotropy; conditions: cited from earlier work
[7] = 15N-1H-HSQC titration, CaM buffer pH 7.0
[8] = association constant, sequential binding sites model, N fixed to 2, 50 mM KCl, 10 mM CaCl2, 20 mM Tris pH 7.0, 298 K
[9] = sequential binding sites model, N fixed to 2, 298 K

Substance: ELWRAQVVATTVMLERKLPRCL [V5p2, C-terminal peptide 2, residues 591–612 of human TRPV5]
- emission maximum (CaM (calmodulin) [1]; CaM:peptide 0.75:1 molar ratio): 337 nm
- emission maximum (CaM (calmodulin) [1]; further addition of CaM (beyond 0.75:1)): 312 nm
- emission maximum without CaM (start of shift) (CaM (calmodulin) [1]; excitation 282 nm): 350 nm
- shift of emission maximum upon CaM addition (CaM (calmodulin) [1]; excitation 282 nm): blue-shift in emission maximum
- CaM NMR line broadening (CaM (calmodulin) [2]): many peaks are significantly broadened, some even beyond detection; also recorded: dramatic line broadening in the CaM NMR spectra
- solubility [3]: only soluble in H2O; also recorded: limited solubility; also recorded: soluble in water
- aggregation / precipitation [3]: in any buffer other than water precipitate was formed; also recorded: tends to aggregate in aqueous buffer solutions
- oligomeric state of CaM in complex (CaM (calmodulin) [4]; from T1rho): (predominantly) monomeric state of CaM
- 15N-T1rho of CaM (CaM (calmodulin) [4]; upfield-shifted amide resonances, H2O with 10 mM 2-mercaptoethanol): ~ 80 ms

Substance: ELWRAQVVATTVMLERKLPRSL [V5p2n, V5p2 peptide featuring a C611S mutation]
- NMR exchange regime of CaM-peptide complex (CaM (calmodulin) [2]): an intermediate exchange regime is retained
- CaM NMR line broadening (CaM (calmodulin) [2]): a significant loss of signal is observed
- aggregation / precipitation [3]: Neither of these two conditions appears to alter the observed behavior

Substance: GLEI PDIFRVGASRYFGKTILGGPFHVI [V5p3, TM23-loop peptide, residues 401–428 of TRPV5, L401G]
- CaM domains involved in binding (overall) (CaM (calmodulin) [2]): Residues of both CaM domains were involved in the binding process
- solubility [3]: only soluble at pH 5.0

Substance: GQTPVKELVSFKWNKYGRPYFS [V5p4, N-terminal peptide 4, residues 310–330 of human TRPV5, C330S]
- shift of emission maximum upon CaM addition (CaM (calmodulin) [1]; excitation 282 nm): blue shift upon addition of calmodulin
- binding process inferred from curved trajectory of resonances (CaM (calmodulin) [2]; [7]): multiple processes take place during V5p4 binding to CaM
- CaM binding affinity (words, from NMR) (CaM (calmodulin) [2]; [7]): relatively weak affinity; also recorded: weak but specific binding to CaM
- NMR exchange regime of CaM-peptide complex (CaM (calmodulin) [2]): fast exchange on the NMR timescale

Substance: GSHRGWEILRQNTLGHL [V5p1s, short TRPV5 C-terminal peptide 1, residues 696–712 of human TRPV5, S696G]
- emission maximum λmax (CaM (calmodulin) [1]; W701, peptide:CaM ratio 1:2, 50 mM KCl, 10 mM CaCl2, 20 mM Tris pH 7.0, excitation 282 nm): ~ 324 nm
- shift of emission maximum upon CaM addition (CaM (calmodulin) [1]; excitation 282 nm): clear blue-shift of the emission maximum
- effect of C-terminal deletion of 17 amino acids on TRPV5 binding to CaM-Sepharose (CaM-Sepharose): did not affect TRPV5 binding to CaM-Sepharose
- CaM residues/domain involved in first binding event (CaM (calmodulin) [2]; 1:1 CaM:peptide, CaM buffer pH 7.0): C-domain of CaM
- CaM residues/domain involved in second binding event (CaM (calmodulin) [2]; 1:2 CaM:peptide, CaM buffer pH 7.0): N-domain of CaM
- number of distinct binding events (CaM (calmodulin) [2]; 15N-1H-HSQC at CaM:peptide 1:0, 1:1, 1:2, CaM buffer pH 7.0): two binding events
- K2 (macroscopic binding constant, second event) (CaM (calmodulin) [5]; [8]): 2.9 (±1.9) × 10^4 M^−1
- K1 (macroscopic binding constant, first event) (CaM (calmodulin) [5]; [8]): 9.2 (±4.1) × 10^6 M^−1
- ΔS1 (CaM (calmodulin) [5]; [9]): −95.3 cal mol^−1 deg^−1
- ΔS2 (CaM (calmodulin) [5]; [9]): −64.1 cal mol^−1 deg^−1

Substance: GSSANWERLRQGTLRRDLRGIINRGLE [V6p1, TRPV6 C-terminal peptide 1, residues 690–716 of human TRPV6, R690G]
- emission maximum upon addition of CaM (CaM (calmodulin) [1]; V6p1, W695, CaM titration up to peptide:CaM 1:2, CaM buffer pH 7.0): 324 nm
- emission maximum without CaM (start of shift) (CaM (calmodulin) [1]; excitation 282 nm): 358 nm
- shift of emission maximum upon CaM addition (CaM (calmodulin) [1]; excitation 282 nm): blue-shift in emission maximum
- CaM domains involved in binding (overall) (CaM (calmodulin) [2]): residues from both domains of CaM are involved in the first and the second binding events; also recorded: involves both domains of CaM to a similar extent
- comparison of the affinities of the two binding events (CaM (calmodulin) [5]; K1 versus K2, sequential binding sites model): indistinguishable macroscopic binding constants; also recorded: nearly identical affinities
- K1 (CaM (calmodulin) [5]; association constant, one binding site model, N allowed to vary, 50 mM KCl, 10 mM CaCl2, 20 mM Tris pH 7.0, 298 K): 1.3 (±0.3) × 10^7 M^−1
- K2 (macroscopic binding constant, second event) (CaM (calmodulin) [5]; [8]): 5.2 (±1.5) × 10^6 M^−1
- K1 (macroscopic binding constant, first event) (CaM (calmodulin) [5]; [8]): 2.2 (±1.7) × 10^6 M^−1
- ΔS1 (CaM (calmodulin) [5]; one binding site model, N allowed to vary, 298 K): −27.7 cal mol^−1 deg^−1
- ΔS1 (CaM (calmodulin) [5]; [9]): −29.6 cal mol^−1 deg^−1
- ΔS2 (CaM (calmodulin) [5]; [9]): −33.0 cal mol^−1 deg^−1

Substance: GVEVPDIFRMGVTRFFGQTILGGPFHVL [V6p3, TM23-loop peptide, residues 401–428 of TRPV6, L401G]
- solubility [3]: only soluble at pH 5.0

Substance: TRPV5 587-616 (from UniProt Q9NQA5)
- Kd [6]: 310 nM

Substance: VRALLTRRASVSARATGTAFRR [V5p5, N-terminal peptide 5, residues 133–154 of human TRPV5]
- CaM binding affinity (words, from NMR) (CaM (calmodulin) [2]; [7]): relatively weak affinity; also recorded: weak but specific binding to CaM
- NMR exchange regime of CaM-peptide complex (CaM (calmodulin) [2]): fast exchange on the NMR timescale
